Laboratory results: US10039741B2, “Use of delta tocopherol for the treatment of lysosomal storage disorders” (The United States of America, as represented by the …, priority 2010, dated 2018)
“Also recorded” adds a separate entry of the source.

Tests used:
[1] = tested on: NPC cells; type: cell-based, human
Protocol: We disclose that the compound's cytotoxicity could interfere with these cell-based assays that often appeared as the false positives for cholesterol reduction and lysosome size decrease. […] Although the tocotrienol effect on these NPCD cells were observed, they were more toxic in our assays and the additional compound purification (to 99%).
To measure the cytotoxicity of compounds, an ATP content assay was used with a commercial assay kit (ATP-Lite, PerkinElmer). Cells were seeded in white solid 1536-well plates and treated with compounds same as in the cholesterol oxidase assay describe above. After 3-day compound treatment, 3 μl/well detection mixture (prepared according to the manufacturer's instructions) was added to each well and the plates were incubated for 10 min at room temperature followed by a measurement using a Viewlux plate reader in a luminescence mode. The buffer in the detection mixture lyses cells and releases cellular ATP which reacts with luciferin in the presence of luciferase to produce light. The luminescence signal reduces if the cells are killed by the compound during the 3-day treatment.

[2] = tested on: NPC1; assay: Protein expression (Western blot); type: cell-based, human; details: NPC fibroblasts
Protocol: Cell lysates were prepared as previously described (31) and proteins in lysates were quantified using Bicinchoninic Acid (BCA) Protein Assay Kit (Sigma-Aldrich). Samples were heated at 65C for 10 min before resolved by SDS-PAGE under reducing conditions. Proteins were transferred to PVDF membranes (Bio-Rad Laboratory) using either Criterion Blotter (Bio-Rad Laboratory) or iBlot dry blotting devices (Invitrogen). For NPC1 and HMG-CoA reductase detection, rabbit polyclonal antibodies against NPC1 (Abcam, cat #ab36983, 1:2000) or HMG-CoA reductase (Millipore, cat #07-457, 1:1000) were used, respectively. A peroxidase-conjugated donkey anti-rabbit IgG (Santa Cruz) was used as secondary antibody at a 1:500 dilution.

[3] = tested on: Farber disease fibroblasts; assay: Lysotracker staining assay; type: cell-based, human
[4] = tested on: baby hamster kidney cells; assay: Cholesterol efflux; type: cell-based
[5] = tested on: neuron-like NPCD cells; assay: Filipin staining co-stained with neuronal beta III tubulin; type: cell-based, human; details: neuron-like cells differentiated from NPCD patient MSC
Protocol: (§1) The adipose mesenchymal stem cells (HMSC.AD-100, HMSC-NPC22 and HMSC-NPC23) were isolated from two NPC patients as well as one heath individual and provided by Celleng-tech (Coralville, Iowa). These cells were maintained in MSC expansion media (Celleng-tech, cat# HMSC.E.Media-450) supplemented with 10% FBS 100 unit/ml penicillin and 100 μg/ml streptomycin at 5% CO2, 37° C. For neural differentiation, cells were initially plated at 30% confluency (˜2500 cells/cm^2) using MSC expansion media. After 24 hours, MSC expansion media were withdrew. Cells were washed twice with Dulbecco's phosphate Buffer saline (Invitrogen) and incubated with neural differentiation media (Celleng-tech, cat# NEU.D.Media-450) supplemented with 10% FBS, 100 unit/ml penicillin and 100 μg/ml streptomycin at 5% CO2, 37° C. for additional 3 days.
(§2) MSC cells were seeded on coverslips on day 0 in MSC expansion medium. On day 1, cells were washed twice with warm PBS buffer and then incubated with MSC neuronal differentiation medium. On day 4, media were replaced with fresh neuronal differentiation medium. On day 6, cells were fixed with 3.2% paraformaldehyde in HBSS for 15 min. Immunocytochemistry for neuronal beta III tubulin and unesterified cholesterol (filipin staining) was performed as described. The coverslips were examined y a XXX microscope. […]

[6] = tested on: NPCD MSC cells; assay: Lysosome size; type: cell-based, human
Protocol: as §1

[7] = tested on: neuron-like NPCD cells; assay: Lysosome size; type: cell-based, human; details: neuron-like cells differentiated from NPCD patient MSC
Protocol: as §1

[8] = tested on: NPCD MSC cells; assay: Free cholesterol accumulation; type: cell-based, human
Protocol: as §1, §2

[9] = tested on: NPC fibroblasts; assay: Microarray gene expression; type: cell-based, human; design: HMGCR expression, Toco treat NPC / SC4MOL expression, Toco treat NPC / DHCR7 expression, Toco treat NPC / MMP3 expression, Toco treat NPC: unit not given here; details: 40 μM delta-tocopherol 5 days vs DMSO-treated
Protocol: Five NPC fibroblast cell lines as well as five normal fibroblast cell lines were treated with 40 μM delta-tocopherol for 5 days with a medium change and sully of fresh compound on 3rd day. The total RNAs was prepared as the standard method described previously ( ). The microarray gene expression experiment was carried out in a core microarray facility at NHGRI with a set of AAAAA chips (Affymetrix). Partek Genomics Software Suite (Copyright, Partek Inc.) was used to perform analysis of microarray data. Affymetrix cell files were loaded into the software using the RMA algorithm, which involved background correction, quantile normalization, log-2 transformation, and median polish summarization. PCA and hierarchical clustering identified one sample as an outlier. This sample (sample number 12) was not considered for further analysis. ANOVA was performed to identify the differentially expressed genes for three comparisons: 1) NPC_DMSO vs WT_DMSO 2) NPC tocopherol-treated vs NPC_DMSO-treated and 3) WT_tocopherol-treated vs WT_DMSO-treated.

## Cc1cc(O)cc2c1O[C@](C)(CCC[C@H](C)CCC[C@H](C)CCCC(C)C)CC2 [δ-tocopherol]
[1]
  cytotoxicity: not present
[2]
  expression of NPC-1 protein: not changed
[2]; listed as Delta-tocopherol
  expression of NPC-1 protein: did not change
[3]
  size of enlarged lysosomes: significantly reduced
[4]
  cholesterol efflux: significantly increased
[5]
  cholesterol accumulation: significant reduction
[6]
  lysosome size: decrease in lysosome size
[7]
  lysosome size: decrease in lysosome size
[8]
  accumulated free cholesterol: reduction of accumulated free cholesterol
[9]
  ABCA1 expression, Toco treat NPC: significantly reduced; also recorded: decreased expression
  ACACA expression, Toco treat NPC: −1.5
  DHCR7 expression, Toco treat NPC: −1.7
  FADS2 expression, Toco treat NPC: −2.5
  FRRS1 expression, Toco treat NPC: 1.1
  HMGCR expression, Toco treat NPC: decreased
  HMGCS1 expression, Toco treat NPC: −1.9
  INSIG1 expression, Toco treat NPC: −1.8
  LDLR expression, Toco treat NPC: significantly reduced; also recorded: decreased expression
  MMP1 expression, Toco treat NPC: 2.7
  MMP3 expression, Toco treat NPC: 1.7
  NOX4 expression, Toco treat NPC: −1.1
  SC4MOL expression, Toco treat NPC: −1.4
  SCD expression, Toco treat NPC: decreased
  SREBF1 expression, Toco treat NPC: −1.4
  SREBF2 expression, Toco treat NPC: −1.6
[9]; listed as tocopherol
  ABCA1 expression, Toco treat NPC: −2.0
  HMGCR expression, Toco treat NPC: −1.7
  LDLR expression, Toco treat NPC: −2.0
  SCD expression, Toco treat NPC: −3.9
